# Source: ChEMBL document CHEMBL4219256, “Design, Synthesis, and Biological Evaluation of 4-Quinoline Carboxylic Acids as Inhibitors of Dihydroorotate Dehydrogenase” (J Med Chem, 2018)
# pIC50: −log10 of the molar value.
# What was measured:
# MIA PaCa-2 = assay: Antiproliferative activity against human MIAPaCa2 cells after 72 hrs by MTT assay; type: functional, cell-based
# HCT-116 [1] = assay: Antiproliferative activity against human HCT116 cells over-expressing DHODH after 72 hrs by MTT assay; type: functional, cell-based
# HL-60 = assay: Antiproliferative activity against human HL60 cells after 72 hrs by MTT assay
# [2] = molecular target: Dihydroorotate dehydrogenase (quinone), mitochondrial (Homo sapiens, UniProt Q02127)
# Sequence of Dihydroorotate dehydrogenase (quinone), mitochondrial (Q02127 whole entry): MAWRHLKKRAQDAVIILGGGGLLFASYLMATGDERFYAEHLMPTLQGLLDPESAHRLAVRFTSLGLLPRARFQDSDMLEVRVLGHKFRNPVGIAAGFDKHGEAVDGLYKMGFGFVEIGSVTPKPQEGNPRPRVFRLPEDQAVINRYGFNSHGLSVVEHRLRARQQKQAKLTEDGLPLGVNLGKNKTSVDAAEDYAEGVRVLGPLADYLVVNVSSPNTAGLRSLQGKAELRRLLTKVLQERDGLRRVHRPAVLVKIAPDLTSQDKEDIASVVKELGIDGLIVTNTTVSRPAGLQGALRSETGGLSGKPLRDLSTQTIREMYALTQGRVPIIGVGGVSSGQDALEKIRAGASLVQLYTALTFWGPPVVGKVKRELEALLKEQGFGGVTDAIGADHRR
# Description: Inhibition of DHODH (unknown origin) expressed in Escherichia coli Rosetta2(DE3) assessed as reduction of DCIP using dihydroorotate as substrate preincubated for 30 mins followed by substrate addition in presence of CoQ10 measured after 1 hr
# HCT-116 [3] = assay: Growth inhibition of human HCT116 cells over-expressing DHODH at 2 times antiproliferative IC50 after 72 hrs in presence of 5 uM uridine by MTT assay; type: functional
# [4] = Thermodynamic aqueous solubility of the compound in pH 7.4 phosphate buffer at 2.9 mg/ml after overnight incubation by CLND method; type: physicochemical
# [5] = Thermodynamic aqueous solubility of the compound in pH 7.4 phosphate buffer at 4.9 mg/ml after overnight incubation by CLND method; type: physicochemical
SMILES,pIC50 (MIA PaCa-2),pIC50 (HCT-116 [1]),further results
O=C(O)c1cc(-c2ccc(-c3ccccc3)cc2)nc2ccccc12,5.67,6.46,pIC50 (HL-60): 5.45
Cc1c(-c2ccc(-c3ccccc3)cc2)nc2ccccc2c1C(=O)O,5.28,5.07,–
O=C(O)c1cc(-c2ccc(-c3ccc(F)nc3)cc2)nc2ccccc12,–,4.77,–
CC(C)Cc1ccc(-c2cc(C(=O)O)c3ccccc3n2)cc1,4.84,–,–
Cc1c(-c2ccc(-c3cccnc3F)cc2)nc2ccc(Cl)cc2c1C(=O)O,4.83,5.27,–
Cc1ccc2nc(-c3ccc(-c4cccnc4Cl)cc3)c(C)c(C(=O)O)c2c1,5.08,4.95,–
Cc1c(-c2ccc(-c3cccnc3Cl)cc2)nc2ccc(Cl)cc2c1C(=O)O,5.33,5.36,–
O=C(O)c1cc(-c2ccc(-c3cccnc3Cl)cc2)nc2ccccc12,5.15,–,pIC50 (HL-60): 5.15
COC(=O)c1cc(-c2ccc(-c3ccccc3)cc2)nc2ccccc12,4.94,5.16,pIC50 [2]: < 3.70
Cc1c(-c2ccc(-c3cccnc3F)cc2)nc2ccccc2c1C(=O)O,4.87,4.67,–
O=C(O)c1cc(-c2ccc(-c3cccnc3F)cc2)nc2ccccc12,4.49,4.95,pIC50 [2]: 5.85
O=C(O)c1cc(-c2ccc(-c3ccccn3)cc2)nc2ccccc12,4.31,4.40,–
Cc1ccc(-c2ccc(-c3nc4ccc(F)cc4c(C(=O)O)c3C)cc2)c(F)n1,4.47,4.47,–
Cc1c(-c2ccc(-c3cccnc3Cl)cc2)nc2ccccc2c1C(=O)O,5.06,5.19,pIC50 (HL-60): 4.82
Cc1ccc(-c2ccc(-c3cc(C(=O)O)c4ccccc4n3)cc2)c(Cl)n1,4.85,5.29,–
O=C(O)c1cc(-c2ccc(C3CCCCC3)cc2)nc2ccccc12,5.23,5.37,growth inhibition (GI) (HCT-116 [3]): <50%; Therm_solubility [4]: 43.9 µM; Therm_solubility [5]: 48 µM
O=C(O)c1cc(-c2ccc(-c3cccnc3)cc2)nc2ccccc12,4.48,4.68,–
O=C(O)c1cc(-c2ccc(-c3ccncc3)cc2)nc2ccccc12,4.17,4.47,–
O=C(O)c1cc(-c2ccc(N3CCCCC3)cc2)nc2ccccc12,4.78,5.14,–
Cc1ccc(-c2ccc(-c3nc4ccccc4c(C(=O)O)c3C)cc2)c(F)n1,4.50,4.62,–
O=C(O)c1cc(-c2ccc(N3CCOCC3)cc2)nc2ccccc12,< 4.00,< 4.00,pIC50 [2]: < 3.70
Cc1ncccc1-c1ccc(-c2cc(C(=O)O)c3ccccc3n2)cc1,4.74,–,pIC50 (HL-60): 4.94
Cc1ccc(-c2ccc(-c3nc4ccccc4c(C(=O)O)c3C)cc2)c(Cl)n1,5.11,4.81,–
COC(=O)c1cc(-c2ccc(-c3cnccc3C(F)(F)F)cc2)nc2ccccc12,–,–,pIC50 [2]: < 4.30
